Experimental data reported in patent US12558435B2, “Transient inhibition of p53 in gene therapy” (Ospedale San Raffaele S.R.L., priority 2018, dated 2026).

How the values were obtained:
human CD34+ cells [1] = assay type: cell-based; details: for HDR efficiency (GFP+ cells): molecules added one day before viral transduction, FIG. 2B; for editing efficiency by molecular analyses on genomic DNA: human HSPC, FIG. 8B
Method: CD34+ cells were either freshly purified from human CB after obtaining informed consent and upon approval by the Ospedale San Raffaele Bioethical Committee, or purchased frozen from Lonza. CD34+ cells were edited according to a previously optimized protocol (Schiroli et al. 2017 supra).
Briefly, 5×10^5 CD34+ cells/ml were stimulated in serum-free StemSpan medium (StemCell Technologies) supplemented with penicillin, streptomycin, glutamine, 1 μM SR-1 (Biovision), […] (STEMCell Technologies), 10 μM PGE2 added only at the beginning of the culture (Cayman), and human early-acting cytokines (SCF 100 ng/ml, Flt3-L 100 ng/ml, TPO 20 ng/ml, and IL-6 20 ng/ml; all purchased from Peprotech). After 3 days of prestimulation, cells were washed with PBS and electroporated using P3 Primary Cell 4D-Nucleofector X Kit and program EO-100 (Lonza). Cells were electroporated with 2.5-1.25 μM of RNPs.
Transduction with AAV6 was performed at a dose of 1-2×10^4 vg/cell 15′ after electroporation. GSE56 mRNA was utilized were indicated at a dose of 150 μg/ml. Gene editing efficiency was measured from cultured cells in vitro 3 days after electroporation by flow cytometry measuring the percentage of cells expressing the GFP marker or by digital droplet PCR analysis designing primers and probe on the junction between the vector sequence and the targeted locus and on control sequences utilized as normalizer as previously described (Schiroli et al. 2017 supra).
For HDR ddPCR, primers and probes were designed on the junction between the vector sequence and the targeted locus and on control sequences used for normalization (human TTC5 genes). Thermal conditions for annealing and extension were adjusted for each specific application as follows: AAVS1/Intron 1 IL2RG HDR 3′ integration junction ddPCR: 55° C. for 30 sec, 72° C. for 2 min. Primers and probes for PCR and ddPCR amplifications are shown below.
CD34^+ cells were purchased frozen from Lonza. CD34^+ cells were edited according to a previously optimised protocol (Schiroli, G. et al (2017) Sci Transl Med 9). Briefly, 1-5×10^5 CD34^+ cells/ml were stimulated in serum-free StemSpan medium (StemCell Technologies) supplemented with penicillin, streptomycin, glutamine, 1 μM of the arylhydrocarbon receptor antagonist SR-1 (Biovision), […] of the pyrimidoindole-derivative UM171 (STEMCell Technologies), 10 μM of the 15-hydroxy PGDH competitive inhibitor dmPGE-2 added only at the beginning of the culture (Cayman), and human early-acting cytokines (SCF 100 ng/ml, Flt3-L 100 ng/ml, TPO 20 ng/ml, and IL-6 20 ng/ml; all purchased from Peprotech). After 3 days of pre-stimulation, cells were washed with PBS and electroporated using P3 Primary Cell 4D-Nucleofector X Kit and program EO-100 (Lonza). Cells were electroporated with 1-1.2 μM of RNPs. Where specified, electroporation mixture was supplemented with Ad5-E4orf1, Ad5-E4orf6/7 and GSE56/Ad5-E4orf6/7 mRNAs, which were respectively utilized at doses of 120, 80 and 200 μg/ml, or Ad5-E1B55K and Ad5-E4orf6 mRNAs were used at 120 and 80 μg/ml. All other adenoviral protein variants were used at standard dose 120 μg/ml. Transduction with AAV-6 was performed 15 min post-electroporation at dose of 1-5×10^4 vg/cell. Where specified, CD34+ cells were stimulated for shorter time in culture (0, 24 or 48 hours) and edited as described above. Gene editing efficiency was measured from cultured cells in vitro at 4 days post-editing by flow cytometry measuring the percentage of cells expressing the GFP reporter gene or by digital droplet PCR analysis designing primers and probe on the junction between the vector sequence and the targeted locus and on control sequence utilised as normaliser as previously described (Schiroli, G. et al (2017) Sci Transl Med 9) and Schiroli et al., Cell Stem Cell 2019. […]

ATR [2] = biological target: T1, ATR (Mus musculus, UniProt Q9JKK8); details: in 3T3TopBP1-ER cells; cited from earlier work
T1 construct: endogenous in cells; host or cells: 3T3TopBP1-ER cells

[3] = DMSO and ethanol; cited from earlier work
human CD34+ cells [4] = experiment: Cell growth curve of edited CD34+ cells; assay type: cell-based
ATR [5] = biological target: ATR (Homo sapiens, UniProt Q13535); details: cited from earlier work
Chain of ATR (Homo sapiens, UniProt Q13535) (Q13535 whole entry): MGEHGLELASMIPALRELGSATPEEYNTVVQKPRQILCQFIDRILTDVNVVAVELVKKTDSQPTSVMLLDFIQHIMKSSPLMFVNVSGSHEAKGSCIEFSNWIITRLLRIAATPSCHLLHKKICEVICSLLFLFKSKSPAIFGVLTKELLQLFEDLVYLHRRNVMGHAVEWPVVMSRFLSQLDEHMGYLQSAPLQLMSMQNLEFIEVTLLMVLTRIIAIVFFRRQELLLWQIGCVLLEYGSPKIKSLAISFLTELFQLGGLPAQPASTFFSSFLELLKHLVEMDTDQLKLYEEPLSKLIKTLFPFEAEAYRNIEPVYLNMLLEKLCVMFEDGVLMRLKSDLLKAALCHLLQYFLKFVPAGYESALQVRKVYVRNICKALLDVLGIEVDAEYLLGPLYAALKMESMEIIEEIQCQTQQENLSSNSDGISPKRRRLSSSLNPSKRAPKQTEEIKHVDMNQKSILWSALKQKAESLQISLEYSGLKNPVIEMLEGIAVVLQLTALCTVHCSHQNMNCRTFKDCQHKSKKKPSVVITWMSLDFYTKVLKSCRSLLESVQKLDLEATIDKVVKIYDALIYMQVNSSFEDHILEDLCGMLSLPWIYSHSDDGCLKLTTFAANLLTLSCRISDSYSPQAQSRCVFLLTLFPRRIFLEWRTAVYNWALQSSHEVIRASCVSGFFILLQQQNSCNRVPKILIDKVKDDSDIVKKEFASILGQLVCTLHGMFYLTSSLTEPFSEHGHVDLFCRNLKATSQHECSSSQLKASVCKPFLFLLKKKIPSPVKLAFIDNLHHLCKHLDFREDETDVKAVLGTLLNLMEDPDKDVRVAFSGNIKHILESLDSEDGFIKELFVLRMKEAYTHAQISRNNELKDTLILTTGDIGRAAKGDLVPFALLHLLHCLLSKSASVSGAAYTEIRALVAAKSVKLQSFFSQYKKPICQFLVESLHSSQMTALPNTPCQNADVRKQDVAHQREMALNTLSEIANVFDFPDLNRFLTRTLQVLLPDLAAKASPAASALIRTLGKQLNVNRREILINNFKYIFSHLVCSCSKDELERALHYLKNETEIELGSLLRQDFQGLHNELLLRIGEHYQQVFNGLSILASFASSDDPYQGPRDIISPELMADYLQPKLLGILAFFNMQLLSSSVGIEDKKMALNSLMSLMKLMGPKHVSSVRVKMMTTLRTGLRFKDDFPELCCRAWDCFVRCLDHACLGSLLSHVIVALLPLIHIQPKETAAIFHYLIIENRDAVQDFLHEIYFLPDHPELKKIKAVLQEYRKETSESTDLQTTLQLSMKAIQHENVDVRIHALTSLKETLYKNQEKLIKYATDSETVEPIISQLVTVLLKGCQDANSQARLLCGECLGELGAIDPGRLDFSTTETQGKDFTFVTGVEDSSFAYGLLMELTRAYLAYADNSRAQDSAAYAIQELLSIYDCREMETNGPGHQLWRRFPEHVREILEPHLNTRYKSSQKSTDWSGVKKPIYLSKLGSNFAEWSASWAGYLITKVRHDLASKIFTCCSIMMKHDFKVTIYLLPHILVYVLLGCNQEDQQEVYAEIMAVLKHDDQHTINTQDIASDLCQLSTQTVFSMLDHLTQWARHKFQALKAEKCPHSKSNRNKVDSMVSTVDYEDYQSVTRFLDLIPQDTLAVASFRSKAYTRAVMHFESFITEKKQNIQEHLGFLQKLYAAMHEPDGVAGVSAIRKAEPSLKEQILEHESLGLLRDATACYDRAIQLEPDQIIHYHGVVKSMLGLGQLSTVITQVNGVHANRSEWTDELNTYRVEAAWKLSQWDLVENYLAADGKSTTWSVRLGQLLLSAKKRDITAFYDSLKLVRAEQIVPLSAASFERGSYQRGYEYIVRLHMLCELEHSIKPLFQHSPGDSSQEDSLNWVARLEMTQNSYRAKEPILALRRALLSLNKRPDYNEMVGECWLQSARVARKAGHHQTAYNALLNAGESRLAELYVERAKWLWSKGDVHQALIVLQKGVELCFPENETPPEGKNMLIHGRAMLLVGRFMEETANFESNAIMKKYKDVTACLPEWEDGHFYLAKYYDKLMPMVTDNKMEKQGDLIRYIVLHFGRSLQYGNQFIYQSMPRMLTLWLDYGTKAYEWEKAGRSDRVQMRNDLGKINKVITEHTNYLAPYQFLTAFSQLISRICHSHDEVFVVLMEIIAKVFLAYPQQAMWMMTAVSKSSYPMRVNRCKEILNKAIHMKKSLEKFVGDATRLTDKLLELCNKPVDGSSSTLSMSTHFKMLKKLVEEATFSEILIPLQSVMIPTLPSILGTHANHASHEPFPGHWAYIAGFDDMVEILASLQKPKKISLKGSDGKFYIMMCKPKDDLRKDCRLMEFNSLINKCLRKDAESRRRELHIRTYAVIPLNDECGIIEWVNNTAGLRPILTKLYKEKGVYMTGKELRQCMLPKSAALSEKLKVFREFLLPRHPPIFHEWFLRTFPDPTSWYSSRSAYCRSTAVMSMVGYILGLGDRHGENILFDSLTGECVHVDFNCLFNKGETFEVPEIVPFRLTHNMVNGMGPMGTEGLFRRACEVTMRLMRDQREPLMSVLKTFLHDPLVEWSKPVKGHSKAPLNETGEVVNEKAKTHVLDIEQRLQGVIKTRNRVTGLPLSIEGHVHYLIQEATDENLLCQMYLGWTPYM
Chain of ATR (Homo sapiens, UniProt Q13535) (Q8WXE1 whole entry partner): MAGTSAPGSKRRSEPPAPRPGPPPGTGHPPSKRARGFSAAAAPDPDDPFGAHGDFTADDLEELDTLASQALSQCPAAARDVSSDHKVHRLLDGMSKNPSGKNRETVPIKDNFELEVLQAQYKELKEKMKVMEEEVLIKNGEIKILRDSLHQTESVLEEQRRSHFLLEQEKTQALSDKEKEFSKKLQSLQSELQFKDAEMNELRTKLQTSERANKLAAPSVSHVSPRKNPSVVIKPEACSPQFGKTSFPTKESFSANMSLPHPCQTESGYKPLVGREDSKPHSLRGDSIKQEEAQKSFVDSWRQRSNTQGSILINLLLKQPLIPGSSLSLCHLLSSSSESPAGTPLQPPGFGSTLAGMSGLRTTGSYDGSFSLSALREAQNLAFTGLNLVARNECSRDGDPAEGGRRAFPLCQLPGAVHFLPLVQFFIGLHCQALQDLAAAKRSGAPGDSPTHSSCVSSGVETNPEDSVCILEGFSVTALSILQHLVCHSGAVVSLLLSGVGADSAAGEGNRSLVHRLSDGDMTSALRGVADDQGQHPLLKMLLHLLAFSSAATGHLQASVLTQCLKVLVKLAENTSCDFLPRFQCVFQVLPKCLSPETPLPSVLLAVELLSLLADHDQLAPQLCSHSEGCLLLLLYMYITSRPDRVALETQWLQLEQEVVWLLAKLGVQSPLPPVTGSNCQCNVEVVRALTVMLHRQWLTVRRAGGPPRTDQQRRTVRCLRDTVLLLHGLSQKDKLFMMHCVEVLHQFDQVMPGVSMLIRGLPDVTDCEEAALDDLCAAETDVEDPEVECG

ATM kinase = ATM kinase (Homo sapiens, UniProt Q13315); details: cited from earlier work
human CD34+ cells [6] = experiment: NHEJ by mismatch-sensitive endonuclease (T7 Endonuclease I) assay in edited CD34+ cells; assay type: cell-based; details: bulk cells, 3 days after gene editing; FIG. 2C
Method: The percentage of insertions and deletion (indels) introduced by the Non Homologous End Joining (NHEJ) repair pathway on the nucleases target site was measured by a mismatch-sensitive endonuclease assay (PCR-based amplification of the targeted locus followed by digestion with T7 Endonuclease I; digested DNA fragments were resolved and quantified by capillary electrophoresis on LabChip GX Touch HT, Perkin Elmer) The levels of NHEJ-induced mutations were used as surrogate readout for scoring nucleases activity.
For molecular analyses, genomic DNA was isolated with DNeasy Blood & Tissue Kit or QIAamp DNA Micro Kit (QIAGEN) according to the number of cells available. Nuclease activity (IL2RG intron 1, AAVS1) was measured by mismatch-sensitive endonuclease assay by PCR-based amplification of the targeted locus followed by digestion with T7 Endonuclease I (NEB) according to the manufacturer's instructions. Digested DNA fragments were resolved and quantified by capillary electrophoresis on LabChip GX Touch HT (Perkin Elmer) according to the manufacturer's instructions.
For molecular analyses, genomic DNA was isolated with DNeasy Blood & Tissue Kit or QIAamp DNA Micro Kit (QIAGEN) according to the number of cells available. […] Digested DNA fragments were resolved and quantified by capillary electrophoresis on LabChip GX Touch HT (Perkin Elmer) according to the manufacturer's instructions.

[7] = test system: human CD34+ cells transplanted into NSG mice; experiment: Xenotransplantation of edited human CD34+ cells in NSG mice; assay type: in vivo; details: AAVS1; T0eq=3×10^5/mouse; FIG. 17B
Method: For transplantation, 3×10^5 CD34+ cells treated for editing at day 5 of culture were injected intravenously into NSG mice after sub-lethal irradiation (150-180 cGy). Sample size was determined by the total number of available treated cells. Mice were attributed to each experimental group randomly. Human CD45+ cell engraftment and the presence of gene-edited cells were monitored by serial collection of blood from the mouse tail and, at the end of the experiment (>20 weeks after transplantation), BM and spleen were harvested and analyzed.
NOD-SCID-IL2Rg^−/− (NSG) mice were purchased from The Jackson Laboratory and were maintained in specific-pathogen-free (SPF) conditions. The procedures involving animals were designed and performed with the approval of the Animal Care and Use Committee of the San Raffaele Hospital (IACUC #749) and communicated to the Ministry of Health and local authorities according to Italian law. For transplantation, 1.5-3×10^5 (for primary) or 2×10^6 (for secondary) CD34^+ treated cells at 24 hours post-editing protocol were injected intravenously into NSG mice after sub-lethal irradiation (180 cGy). Sample size was determined by the total number of available treated cells. Mice were attributed to each experimental group randomly. Human CD45^+ cell engraftment and the percentage of edited GFP^+ cells were monitored by serial collection of blood from the mouse tail over the weeks post-transplantation and at the end of the experiment (18-20 weeks post-transplantation) both spleen and bone-marrow were harvested and analysed.

human CD34+ cells [8] = experiment: CFU-C / colony forming cell assay of edited CD34+ cells; assay type: cell-based
human CD34+ cells [9] = experiment: Cell cycle analysis by Hoechst 33342 staining; assay type: cell-based; details: bulk treated cells; 12-24 hours; FIG. 14H
Method: Cell cycle was analysed by flow cytometry (CytoFLEX LX; Beckman Coulter) at 12-24 hours post-editing by collecting 0.5-1×10^5 total HSPCs in culture. Cells were washed with PBS+2% FBS and stained by using 10 μg/ml Hoechst 33342 (Sigma-Aldrich) in PBS+2% FBS for 0.5-1 hour in final volume equal to 200 μl.

Cc1ccc(C(=O)Cn2c3c(sc2=N)CCCC3)cc1 [pifithrin-α, reference compound]
HDR efficiency (GFP+ cells) (human CD34+ cells [1]; 3 days after gene editing): increase in HDR efficiency

Cn1c(=O)n(-c2ccc(C(C)(C)C#N)cc2)c2c3cc(-c4cnc5ccccc5c4)ccc3ncc21 [BEZ235]
IC50 (ATR [2]): ~21 nM

O=c1cc(-c2cccc3c2Sc2ccccc2S3)oc(N2CCOCC2)c1 [KU-55933]
solubility [3]: soluble in DMSO and ethanol

N=c1sc2c(n1CC(=O)c1ccc([N+](=O)[O-])cc1)CCCC2 [pifithrin-α p-nitro, reference compound]
HDR efficiency (GFP+ cells) (human CD34+ cells [1]; 3 days after gene editing): increase in HDR efficiency

E1B55K and E4orf6: combination of adenoviral proteins E1B55K (SEQ ID No. 15) and E4orf6 (SEQ ID No. 13), delivered as mRNAs
growth curve of treated cells (human CD34+ cells [4]; FIG. 8D): lower compared to the standard | GFP expression from the AAV6 donor (human CD34+ cells [1]; FIG. 15A): increased significantly the GFP expression | HDR-mediated integrations at the targeted AAVS1 locus compared to standard (human CD34+ cells [1]; FIG. 15B): reducing HDR-mediated integrations | editing efficiency by molecular analyses on genomic DNA (human CD34+ cells [1]): not effective in increasing the editing efficiency | transient increase in the fraction of GFP+ cells (human CD34+ cells [1]; mainly most primitive HSPC compartment, AAVS1, FIG. 8A): up to 1.45 fold

O=C(NC(NC(=S)Nc1ccc(F)c([N+](=O)[O-])c1)C(Cl)(Cl)Cl)C(c1ccccc1)c1ccccc1 (stereo not shown) [CGK 733]
IC50 (ATR [5]): ~200 nM | IC50 (ATM kinase): ~200 nM

COc1cc2ncnc(-n3nc(-c4ccccn4)nc3N)c2cc1OC [CP-466722]
effect on ATR (ATR [5]): does not affect ATR

Cc1ccc(-c2cn3c4c(sc3n2)CCCC4)cc1 [pifithrin-α cyclic, reference compound]
increase in DNA repair by NHEJ (human CD34+ cells [6]): two-fold | cellular toxicity (human CD34+ cells [1]): lowest cellular toxicity | increase in gene editing in the most primitive CD34+ CD133+ CD90+ cell compartment (human CD34+ cells [1]; 3 days after gene editing, FIG. 2C): two-fold | HDR efficiency (GFP+ cells) (human CD34+ cells [1]; 3 days after gene editing): increase in HDR efficiency

B1: E4orf1: adenoviral protein from adenovirus serotype 5 E4 gene (SEQ ID No. 1), delivered as mRNA (protein)
chain: MAAAVEALYVVLEREGAILPRQEGFSGVYVFFSPINFVIPPMGAVMLSLRLRVCIPPGYFGRFLALTDVNQPDVFTESYIMTPDMTEELSVVLFNHGDQFFYGHAGMAVVRLMLIRVVFPVVRQASNV
modifications: delivered as mRNA; example amino acid sequence of Ad5-E4orf1
growth curve of treated cells compared to standard and E4orf6/7 alone (human CD34+ cells [4]; FIG. 7D): 4 fold | cell growth compared to standard RNP+AAV6 (human CD34+ cells [4]; days post-editing, FIG. 14B): about 2 fold | human CD45+ cell engraftment in bloodstream, between groups [7]: did not show any statistical significance | targeting efficiency versus mRNA dose (human CD34+ cells [1]; AAVS1, different mRNA doses, FIG. 6D): dose dependent increase in the targeting efficiency | increase of GFP expression compared to standard RNP+AAV6 (human CD34+ cells [1]; AAVS1, most primitive compartment (CD34+133+90+ / CD90+), 96 hours, FIG. 14C): up to 1.3 fold | mean increase in the percentage of targeted primitive HSPC (human CD34+ cells [1]; best performing mRNA dose, AAVS1, FIG. 6D): 1.5 fold | editing efficiency by molecular analyses on genomic DNA (human CD34+ cells [1]): reproducibly able to boost editing | mean increase in the fraction of GFP+ cells compared to the standard (human CD34+ cells [1]; side-by-side, AAVS1, 4 days, FIG. 7A): 1.2 fold | increase in number of myeloid and erythroid colony forming units (CFU) compared to standard (human CD34+ cells [8]; FIG. 7C): 3 fold | erythroid and myeloid clonogenic output compared to standard protocol (human CD34+ cells [8]; FIG. 14G): improved | number of colonies (human CD34+ cells [8]; among E4orf1 serotype variants, FIG. 21D): highest number of colonies | cell cycle states (G1 to S/G2/M) (human CD34+ cells [9]): lower and not significant
